Legend:
[1] = target: T1, BRAF^V600E (Homo sapiens, UniProt P15056, V600E); test: BRAF^V600E kinase inhibition, Z'-LYTE; assay type: biochemical; conditions: average of two independent experiments; for inhibition at 0.1 µM: 100 nM
T1 construct: purchased Life Technologies
Method: The experiments were performed according to the instructions of the manufacturer, and single point concentration testing with two independent data points (n = 2). […] The IC50 values were calculated from the inhibition curves from two separate experiments.

[2] = tested on: A375; test: MTT anti-proliferative assay, A375; assay type: cell-based; conditions: Homo sapiens, A-375, 48 h
Method: (§1) All cell lines were purchased from Cell Bank of China Science Academy (Shanghai, China). All chemicals and solvents were purchased from Sigma-Aldrich (St. Louis, MO, USA) or Gibco (Gibco BRL, Grand Island, NY, USA). The PC-3 and A375 cell lines was maintained in Dulbecco's modified eagle (DEME) medium supplement with 10% fetal bovine serum (FBS) and 1% penicillin–streptomycin. The others were cultured in Roswell Park Memorial Institute (RPMI) 1640 medium supplement with 10% fetal bovine serum (FBS) and 1% penicillin–streptomycin. Approximately 5 × 10^3 cells, suspended in medium, were plated into each well of a 96-well plate and grown at 37 °C in a humidified atmosphere with 5% CO2 for 24 h. The following day, various concentrations of tested compounds were added to the culture medium and incubated for 48 h. Fresh MTT was added to each well at the terminal concentration of 5 mg/mL in phosphate buffered saline (PBS), and incubated with cells at 37 °C for 4 h. The formazan crystals in each well were dissolved in 150 μL DMSO, and the absorbency at 570 nm was measured with an enzyme-linked immunosorbent assay plate reader. All of the compounds were tested three times in each of the cell lines.

[3] = tested on: HT-29; test: MTT anti-proliferative assay, HT-29; assay type: cell-based; conditions: Homo sapiens, 48 h
Method: as §1

[4] = tested on: PC-3; test: MTT anti-proliferative assay, PC-3; assay type: cell-based, human; conditions: for IC50: Homo sapiens, PC-3, MTT, 48 h; for fold improvement in activity compared to Sorafenib, PC-3: PC-3, IC50 ratio to Sorafenib
Method: as §1

[5] = tested on: A549; test: MTT anti-proliferative assay, A549; assay type: cell-based, human; conditions: for IC50: Homo sapiens, A549, MTT, 48 h
Method: as §1

[6] = in vitro; conditions: dog
Method: as §1

[7] = MTT cytotoxic assay, normal cell line MDCK; conditions: dog, MDCK cells (normal cell line)
Method: as §1

T1 sequence (P15056 whole entry V600E): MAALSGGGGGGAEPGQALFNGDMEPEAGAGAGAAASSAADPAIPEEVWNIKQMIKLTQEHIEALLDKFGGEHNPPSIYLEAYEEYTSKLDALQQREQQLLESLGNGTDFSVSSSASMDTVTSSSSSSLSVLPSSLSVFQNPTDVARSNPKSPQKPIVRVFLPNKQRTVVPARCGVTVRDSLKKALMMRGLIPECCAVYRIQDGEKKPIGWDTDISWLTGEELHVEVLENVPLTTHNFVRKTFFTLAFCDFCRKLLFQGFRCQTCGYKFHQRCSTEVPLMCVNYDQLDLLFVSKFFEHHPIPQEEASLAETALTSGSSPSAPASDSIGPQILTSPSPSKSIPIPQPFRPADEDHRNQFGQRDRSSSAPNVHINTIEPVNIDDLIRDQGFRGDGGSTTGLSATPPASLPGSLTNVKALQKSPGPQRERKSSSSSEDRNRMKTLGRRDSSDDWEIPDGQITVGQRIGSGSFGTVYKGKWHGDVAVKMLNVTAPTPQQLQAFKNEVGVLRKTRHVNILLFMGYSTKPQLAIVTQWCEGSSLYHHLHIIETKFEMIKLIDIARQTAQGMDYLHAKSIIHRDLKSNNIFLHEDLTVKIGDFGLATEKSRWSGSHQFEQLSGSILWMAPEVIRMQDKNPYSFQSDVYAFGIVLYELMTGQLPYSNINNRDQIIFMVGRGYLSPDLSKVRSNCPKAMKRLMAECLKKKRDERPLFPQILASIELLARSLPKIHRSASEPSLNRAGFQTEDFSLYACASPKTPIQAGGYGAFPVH

SMILES | inhibition at 0.1 µM [1] [%] | inhibition at 1 µM ([1]; 1000 nM) [%] | IC50 [2] [µM] | IC50 [3] [µM] | IC50 [4] [µM] | IC50 [5] [µM] | IC50 at 48 h [6] [µM] | melting point [°C] | IC50 at 48 h [7] [µM] | BRAF^V600E (%) inhibition at 1000 nM ([1]; 1000 nM) | fold improvement in activity compared to Sorafenib, PC-3 [4] [fold] | fold improvement compared to Sorafenib, A549 ([5]; A549, IC50 ratio to Sorafenib) [fold]
O=C(Nc1ccc(Oc2ncnc3[nH]ncc23)cc1)Nc1ccc(Cl)c(C(F)(F)F)c1 [Compound 1a, 1-(4-((1H-Pyrazolo[3,4-d]pyrimidin-4-yl)oxy)phenyl)-3-(4-chloro-3-(trifluoromet-hyl)phenyl)urea] | 37 | 90 | 29.3 | > 80 | 19.5 | 19.8 | 17.8 | – | – | – | – | –
Cc1cccc(NC(=O)Nc2ccc(Oc3ncnc4[nH]ncc34)cc2)c1 [Compound 1b, 1-(4-((1H-Pyrazolo[3,4-d]pyrimidin-4-yl)oxy)phenyl)-3-(m-tolyl)urea] | – | 46 | > 80 | > 80 | > 80 | 75.6 | – | 227.4 to 230 | > 80 | – | – | –
O=C(Nc1ccc(Oc2ncnc3[nH]ncc23)cc1)Nc1ccc(Cl)c(Cl)c1 [Compound 1c, 1-(4-((1H-Pyrazolo[3,4-d]pyrimidin-4-yl)oxy)phenyl)-3-(3,4-dichlorophenyl)urea] | 27 | 83 | 29.7 | 15.2 | 11.2 | 16.2 | – | 245 to 247.2 | 35.5 | – | – | –
O=C(Nc1ccc(Cl)cc1)Nc1ccc(Oc2ncnc3[nH]ncc23)cc1 [Compound 1d, 1-(4-((1H-Pyrazolo[3,4-d]pyrimidin-4-yl)oxy)phenyl)-3-(4-chlorophenyl)urea] | – | 51 | 78.8 | > 80 | 18.4 | > 80 | – | – | > 80 | – | – | –
O=C(Nc1ccccc1)Nc1ccc(Oc2ncnc3[nH]ncc23)cc1 [Compound 1e, 1-(4-((1H-Pyrazolo[3,4-d]pyrimidin-4-yl)oxy)phenyl)-3-phenylurea] | – | 1 | > 80 | > 80 | > 80 | > 80 | > 80 | 247.3 to 249.2 | – | no inhibitory activity | – | –
Cc1ccc(Cl)c(NC(=O)Nc2ccc(Oc3ncnc4[nH]ncc34)cc2)c1 [Compound 1f, 1-(4-((1H-Pyrazolo[3,4-d]pyrimidin-4-yl)oxy)phenyl)-3-(2-chloro-5-methylphenyl)urea] | – | 37 | 62.3 | 61.7 | 1.12 | 5.24 | – | 230.2 to 232.4 | > 80 | – | 12 | 2
O=C(Nc1ccc(Oc2ncnc3[nH]ncc23)cc1)Nc1cccc(Cl)c1 [Compound 1g, 1-(4-((1H-Pyrazolo[3,4-d]pyrimidin-4-yl)oxy)phenyl)-3-(3-chlorophenyl)urea] | – | 54 | > 80 | > 80 | > 80 | 70.1 | – | 234.8 to 236 | > 80 | – | – | –
Cc1cccc(NC(=O)Nc2ccc(Oc3ncnc4[nH]ncc34)cc2)c1C [Compound 1h, 1-(4-((1H-Pyrazolo[3,4-d]pyrimidin-4-yl)oxy)phenyl)-3-(2,3-dimethylphenyl)urea] | – | 27 | > 80 | > 80 | 11.7 | > 80 | > 80 | 250.4 to 252.3 | – | – | – | –
O=C(Nc1ccc(Oc2ncnc3[nH]ncc23)cc1)Nc1cc(C(F)(F)F)ccc1Cl [Compound 1i, 1-(4-((1H-Pyrazolo[3,4-d]pyrimidin-4-yl)oxy)phenyl)-3-(2-chloro-5-(trifluoromethyl)phenyl)urea] | 52 | 83 | 26.9 | 62.4 | 1.12 | 60.8 | – | 239.2 to 240.3 | > 80 | – | 12 | –
O=C(Nc1ccc(Oc2ncnc3[nH]ncc23)cc1)Nc1cc(F)cc(C(F)(F)F)c1 [Compound 1j, 1-(4-((1H-Pyrazolo[3,4-d]pyrimidin-4-yl)oxy)phenyl)-3-(3-fluoro-5-(trifluoromethyl)phenyl)urea] | 37 | 67 | 30.4 | 50.7 | 46 | 60.3 | – | 249.2 to 250.6 | > 80 | – | – | –

From PMC6153936, “Bisarylureas Based on 1H-Pyrazolo[3,4-d]pyrimidine Scaffold as Novel Pan-RAF Inhibitors with Potent Anti-Proliferative Activities: Structure-Based Design, Synthesis, Biological Evaluation and Molecular Modelling Studies” (Molecules : A Journal of Synthetic Chemistry and Natural …, 2017)
